Results as given in patent publication US10874669B2 (WAYNE STATE UNIVERSITY, priority 2018, dated 2020).
Entries after “also recorded” stand apart in the source; their conditions may differ. One block for each compound: values may come before it.

Key:
cloned D2L receptors = cloned D2L receptors (Rattus norvegicus (Rat), UniProt P61169); assay: [3H]spiperone displacement, cloned D2L receptors in HEK cells; assay type: binding; conditions: means±SEM for 3 experiments
Source text: The following table provides inhibition constants for displacing [3H]spiperone binding to the cloned D2L and D3 receptors expressed in HEK cells. […] NR=Not repeated.

cloned D3 receptors = cloned D3 receptors (Rattus norvegicus (Rat), UniProt P19020); assay: [3H]spiperone displacement, cloned D3 receptors in HEK cells; assay type: binding; conditions: means±SEM for 3 experiments
Source text: The following table provides inhibition constants for displacing [3H]spiperone binding to the cloned D2L and D3 receptors expressed in HEK cells. Results are means±SEM for 3 experiments each performed in triplicate. NR=Not repeated.

PC12 cells [1] = conditions: previously shown; cited from earlier work
α-syn = α-syn (Homo sapiens (Human), UniProt P37840); conditions: previously shown; cited from earlier work
human DA D2 receptors = human DA D2 receptors (Homo sapiens (Human), UniProt P14416); assay: [35S]GTPγS binding stimulation, human D2 receptors in CHO cells; assay type: biochemical
PC12 cells [2] = assay: DCFDA fluorescence assay of intracellular ROS induced by 6-OHDA; assay type: cell-based, rat; conditions: 20 μM, 24 h pretreatment, then 75 μM 6-OHDA 1 h
Description: Experimental detection of reactive oxygen species (ROS) produced by 6-OHDA was carried out by DCFDA assay. 6-OHDA, a well known neurotoxin, produces oxidative stress similar to what is observed in PD and the mechanism of neurotoxicity of 6-OHDA takes place via its auto-oxidation and subsequent generation of hydrogen peroxide. DCFDA is a non-fluorogenic dye but in the presence of ROS, it is oxidized to produce DCF which produces florescence. We have previously shown that 6-OHDA causes cell death in a dose-dependent manner. We chose 75 μM 6-OHDA as we have shown that this dose induces 40-50% cell death. […] However, the test compounds could dose dependently decrease the production of ROS induced by 6-OHDA (75 μM) in PC12 cells. In this regard, highest dose of all the three compounds was the most efficacious in producing significant antioxidant effect.
(§1) PC12 cells (ATCC CRL1721.1, Manassas, Va., USA), a rat adrenal pheochromocytoma cell line, were cultured in T-75 flasks (Greiner Bio One, Frickenhausen, Germany) and maintained in RPMI 1640 medium supplemented with 10% heat inactivated horse serum, 5% fetal bovine sérum, 100 U/ml penicillin, and 100 μg/mL streptomycin at 37° C. in 95% air/5% CO2. […]
PC12 cells were plated at 30,000 cells/well density in 100 μL media in 96-well black plates and incubated at 37° C. under 5% CO2 atmosphere for 24 h. […] After incubation for 1 h, the fluorescence was measured using spectrophotometer fluorescence generated microplate reader (Biotek Epoch, Winooski, Vt., USA) at excitation 497 nm and emission at 527 nm. […] The specific fluorescence emission was calculated after subtraction of the DCFDA untreated control cells from the DCFDA treated cells for both the background and 1 h treatment conditions. This was followed by the division of the 1 h treatment data by the background activity which was determined from vials before treatment with 6-OHDA, to derive the final data point.

PC12 cells [3] = assay: MTT neuroprotection against 6-OHDA-induced toxicity; assay type: cell-based, rat
Description: (§2) To investigate the neuroprotection property of the selected target molecules (−)-91b, (−)-95a and (−)-95c against 6-OHDA-induced cytotoxicity, we used dopaminergic rat adrenal Pheochromocytoma PC12 cells. As reported above, treatment of PC12 cells with 6-OHDA at 75 μM for 24 h produced ˜50% loss in cells viability and this concentration was used in subsequent experiments. […] However, (−)-95a produced some incremental toxicity starting at 20 μM dose (FIG. 4B). The potential neuroprotective effects of (−)-91b, (−)-95a and (−)-95c against 6-OHDA-induced toxicity were evaluated next. […] At those concentration both drugs increased cell survival by ˜20% compared to 6-OHDA (75 μM) treated alone (FIGS. 4D and 4F), indicating neuroprotective effect of these drugs. […] This could be due to the fact that the compound by itself produced toxicity to the cells at doses ≥20 μM and the presence of 6-OHDA enhanced the toxicity (FIG. 4B).
PC12 cells (ATCC CRL1721.1, Manassas, Va., USA), a rat adrenal pheochromocytoma cell line, were cultured in T-75 flasks (Greiner Bio One, Frickenhausen, Germany) and maintained in RPMI 1640 medium supplemented with 10% heat inactivated horse serum, 5% fetal bovine serum, 100 U/ml penicillin, and 100 μg/mL streptomycin at 37° C. in 95% air/5% CO2. Stock solutions of (−)-91b, (−)-95a, (−)-95c, and 6-hydroxydopamine (6-OHDA) were prepared in dimethylsulfoxide (DMSO) and aliquots were stored at −20° C. and −80° C., respectively. For all experiments assessing neuroprotective effects of the test compounds, PC12 cells were pretreated with indicated concentrations of (−)-91b, (−)-95a and (−)-95c for 24 h and then treated with 75 μM 6-OHDA for another 24 h. The control cells were treated with above media containing 0.01% DMSO only.
PC12 cells were plated at 17000 cells/well density in 100 μL of media in 96-well plates and incubated at 37° C. under 5% CO2 atmosphere for 24 h. Cells were treated with varying concentrations of the test compounds to determine their direct effect on cell viability. Neuroprotection experiments were conducted by treating cells for 24 h with varying concentrations of (−)-91b, (−)-95a and (−)-95c. Then the drug containing media was replaced with fresh culture media followed by treatment with 75 μM of 6-OHDA alone for an additional 24 h under the same condition. After incubation for 24 h, 5 mg/mL MTT solution (prepared in Dulbecco's phosphate-buffered saline) was added to the cells (to a final concentration of 0.5 mg/mL) and the plates were further incubated at 37° C. in 95% air/5% CO2 atmosphere for 3-4 h to produce dark-blue formazan crystals. Afterward, the plates were centrifuged at 450 g for 10 min and the supernatants were carefully removed. Formazan crystals were dissolved by adding 100 μL of methanol:DMSO (1:1) mixture to each well and shaking gently at 400 rpm for 30 min at room temperature on a Thermomix R shaker (Eppendorf, Hamburg, Germany). The absorbance was measured on a microplate reader (Biotek Epoch, Winooski, Vt., USA) at 570 nm with background correction performed at 690 nm. Data from at least three experiments were analyzed using GraphPad software (version 6, San Diego, Calif., USA). Cell viability was defined as […] compared to untreated controls.

human DA D3 receptors = human DA D3 receptors (Homo sapiens (Human), UniProt P35462); assay: [35S]GTPγS binding stimulation, human D3 receptors in CHO cells; assay type: biochemical
PC12 cells [4] = assay: MTT cell viability, compounds alone; assay type: cell-based, rat; conditions: 0.01-30 μM, compared to untreated controls
Description: as §2
as §1, with “serum,” for “sérum,”, “CO2. Stock solutions of (−)-91b, (−)-95a, (−)-95c, and 6-hydroxydopamine (6-OHDA) were prepared in dimethylsulfoxide (DMSO) and aliquots were stored at −20° C. and −80° C., respectively.” for “CO2.”
PC12 cells were plated at 17000 cells/well density in 100 μL of media in 96-well plates and incubated at 37° C. under 5% CO2 atmosphere for 24 h. […] The absorbance was measured on a microplate reader (Biotek Epoch, Winooski, Vt., USA) at 570 nm with background correction performed at 690 nm. Data from at least three experiments were analyzed using GraphPad software (version 6, San Diego, Calif., USA). Cell viability was defined as […] compared to untreated controls.

[5] = system: reserpine-induced hypolocomotion in rats; assay: Reversal of reserpine-induced hypolocomotion in rats; conditions: 10 μMol/kg, ip
Description: In this model depletion of catecholamines by reserpine results in catalepsy in rats.
The following commercially available drug was used in the experiment: reserpine hydrochloride (Alfa Aesar). […] The compounds for this study were administered in a volume of 0.1-0.2 mL for subcutaneous administration and 0.5-0.7 ml for interaperitoneal administration into each rat.
In rodent studies, animals were male and female Sprague-Dawley rats from Harlan (Indianapolis, Ind.) weighing 220-225 g unless otherwise specified. Animals were maintained in sawdust-lined cages in a temperature and humidity controlled environment at 22±1° C. and 60±5% humidity, respectively. A 12 h light/dark cycle was maintained, with lights on from 6:00 a.m. to 6:00 p.m. They were group-housed with unrestricted access to food and water. All experiments were performed during the light component.
Reserpine (5.0 mg/kg, sc) was administered 18 h before the injection of drug or vehicle. The rats were placed individually in the chambers for 1 h for acclimatization before administration of the test drugs or vehicle. Immediately after administration of drug or vehicle, animals were individually placed in Opto-Varimex 4 animal activity monitor chamber (Columbus Instruments, Ohio, USA) to start measuring locomotor activity. Locomotion was monitored for 6 h. […] The data were presented as horizontal activity (HACTV). […] The data were analyzed by one-way analysis of variance (ANOVA) followed by Dunnett's post hoc test.

cloned rat D3 receptors = cloned rat D3 receptors (Rattus norvegicus (Rat), UniProt P19020); assay: [3H]spiroperidol competition binding, rat D3 receptors in HEK-293 cells; conditions: rat D3 in HEK-293 cells; values of Table 3
Description: A well established radioligand competition assay was carried out to evaluate binding affinity of the test compounds and were compared with that of the reference agent (S)-5-OH-DPAT (Table 3). Binding affinity to rat DA D2 and D3 receptors expressed in HEK-293 cells was determined as described by us previously. […] This indicated highest tolerance of the 4-substituted carbazole derivative for interaction with the D2 and D3 receptors.
(§3) All these procedures were described by us previously.

cloned rat D2L receptors = cloned rat D2L receptors (Rattus norvegicus (Rat), UniProt P61169); assay: [3H]spiroperidol competition binding, rat D2L receptors in HEK-293 cells; conditions: rat D2 in HEK-293 cells; values of Table 3
Source text: as §3

[6] = compared with maximum stimulation by full agonist DA

Chain of cloned D2L receptors (P61169 whole entry): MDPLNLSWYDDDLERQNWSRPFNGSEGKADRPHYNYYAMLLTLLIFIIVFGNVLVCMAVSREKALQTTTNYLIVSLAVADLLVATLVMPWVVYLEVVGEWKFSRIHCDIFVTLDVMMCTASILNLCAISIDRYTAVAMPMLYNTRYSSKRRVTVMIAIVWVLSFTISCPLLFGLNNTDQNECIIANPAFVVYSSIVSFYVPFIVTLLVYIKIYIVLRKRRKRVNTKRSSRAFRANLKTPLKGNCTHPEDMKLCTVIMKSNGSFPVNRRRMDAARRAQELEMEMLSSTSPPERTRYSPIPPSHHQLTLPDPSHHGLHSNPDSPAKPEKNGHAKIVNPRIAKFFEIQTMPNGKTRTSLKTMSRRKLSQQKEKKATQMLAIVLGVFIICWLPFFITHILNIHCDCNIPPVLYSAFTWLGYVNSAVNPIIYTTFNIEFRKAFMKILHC
Chain of cloned D3 receptors (P19020 whole entry): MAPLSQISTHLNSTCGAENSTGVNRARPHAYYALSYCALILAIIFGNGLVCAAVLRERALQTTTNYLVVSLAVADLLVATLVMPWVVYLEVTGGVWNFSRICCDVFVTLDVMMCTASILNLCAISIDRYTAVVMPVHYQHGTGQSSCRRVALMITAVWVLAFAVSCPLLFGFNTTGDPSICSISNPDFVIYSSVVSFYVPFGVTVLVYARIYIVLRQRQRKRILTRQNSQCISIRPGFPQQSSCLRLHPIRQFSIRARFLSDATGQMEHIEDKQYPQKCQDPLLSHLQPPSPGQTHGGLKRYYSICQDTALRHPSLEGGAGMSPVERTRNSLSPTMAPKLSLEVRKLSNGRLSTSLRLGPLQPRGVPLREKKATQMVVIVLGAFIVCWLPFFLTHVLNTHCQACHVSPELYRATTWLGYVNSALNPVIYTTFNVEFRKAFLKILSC
Chain of human DA D2 receptors (P14416 whole entry): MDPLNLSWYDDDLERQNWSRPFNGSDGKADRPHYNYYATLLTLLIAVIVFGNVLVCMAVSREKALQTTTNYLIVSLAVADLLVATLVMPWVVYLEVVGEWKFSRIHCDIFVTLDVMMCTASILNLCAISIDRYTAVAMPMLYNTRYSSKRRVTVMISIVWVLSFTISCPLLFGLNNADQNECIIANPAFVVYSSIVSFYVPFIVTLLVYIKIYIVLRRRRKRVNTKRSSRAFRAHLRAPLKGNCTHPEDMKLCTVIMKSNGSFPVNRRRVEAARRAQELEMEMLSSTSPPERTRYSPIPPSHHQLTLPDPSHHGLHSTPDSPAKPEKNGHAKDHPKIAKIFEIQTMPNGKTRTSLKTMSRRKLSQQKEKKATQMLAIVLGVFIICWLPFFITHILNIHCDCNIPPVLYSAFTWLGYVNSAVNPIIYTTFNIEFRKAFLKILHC
Chain of human DA D3 receptors (P35462 whole entry): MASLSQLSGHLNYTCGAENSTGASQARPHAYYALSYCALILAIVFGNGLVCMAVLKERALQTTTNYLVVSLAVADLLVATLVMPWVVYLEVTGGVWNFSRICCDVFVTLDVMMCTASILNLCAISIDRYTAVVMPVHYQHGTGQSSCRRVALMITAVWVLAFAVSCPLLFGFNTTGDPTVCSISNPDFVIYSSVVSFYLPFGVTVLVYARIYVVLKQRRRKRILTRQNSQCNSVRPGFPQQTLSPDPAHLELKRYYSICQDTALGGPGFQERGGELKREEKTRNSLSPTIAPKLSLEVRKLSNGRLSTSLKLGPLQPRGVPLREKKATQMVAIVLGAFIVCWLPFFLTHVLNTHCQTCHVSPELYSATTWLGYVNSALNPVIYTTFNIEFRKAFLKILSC
Chain of cloned rat D2L receptors (P61169 whole entry): as the sequence (P61169 whole entry) above
Chain of cloned rat D3 receptors (P19020 whole entry): as the sequence (P19020 whole entry) above

SMILES: CCCN(CCCc1ccc(O)c(OC)c1)C1CCc2nc(N)sc2C1 (stereo not shown) [Compound 22, 4-(3-((2-Amino-4,5,6,7-tetrahydrobenzo[d]thiazol-6-yl)(propyl)amino)propyl)-2-methoxyphenol]
Ki (cloned D3 receptors): 15.8 ± 2 nM | Ki (cloned D2L receptors): 2400 nM

SMILES: CCCN(CCC)C1CCc2c(O)cccc2C1 (stereo not shown) [Compound 5-OHDPAT, 5-hydroxy-2-(dipropylamino)tetralin]
reducing toxicities of α-syn aggregates, compared to hybrid agonist (PC12 cells [1]): far less effective | decreasing ThT fluorescence, compared to hybrid agonist (α-syn): far less effective

SMILES: CCCN(CCC/C=C\c1ccc(O)c(OC)c1)C1CCc2nc(N)sc2C1 (stereo not shown) [Compound 39, (Z)-4-(5-((2-amino-4,5,6,7-tetrahydrobenzo[d]thiazol-6-yl)(propyl)amino)pent-1-en-1-yl)-2-methoxyphenol]
Ki (cloned D3 receptors): 23.3 ± 4 nM | Ki (cloned D2L receptors): 233 ± 8 nM

SMILES: CCCN[C@H]1CCc2nc(N)sc2C1 [Pramipexole]
reducing toxicities of α-syn aggregates, compared to hybrid agonist (PC12 cells [1]): far less effective | decreasing ThT fluorescence, compared to hybrid agonist (α-syn): far less effective

SMILES: CCCN(C/C=C/c1ccc(O)c(OC)c1)C1CCc2nc(N)sc2C1 (stereo not shown) [Compound 63, (E)-4-(3-((2-amino-4,5,6,7-tetrahydrobenzo[d]thiazol-6-yl)(propyl)amino)prop-1-en-1-yl)-2-methoxyphenol]
Ki (cloned D3 receptors): 39.1 ± 5.4 nM | Ki (cloned D2L receptors): 4630 nM

SMILES: CCCN(CCCCCc1ccc(O)c(O)c1)[C@@H]1CCc2nc(N)sc2C1 [(−)-34, (R)-4-(5-((2-Amino-4,5,6,7-tetrahydrobenzo[d]thiazol-6-yl)(propyl)amino)pentyl)benzene-1,2-diol]
Ki (cloned D3 receptors): 1.42 ± 0.14 nM | Ki (cloned D2L receptors): 65.7 ± 11.7 nM

SMILES: CCCN(CCCCCc1ccc(O)c(O)c1)C1CCc2nc(N)sc2C1 (stereo not shown) [Compound 34, 4-(5-((2-Amino-4,5,6,7-tetrahydrobenzo[d]thiazol-6-yl)(propyl)amino)pentyl)benzene-1,2-diol]
Ki (cloned D3 receptors): 2.59 ± 0.31 nM | Ki (cloned D2L receptors): 116 ± 8 nM

Continued, in another order:

Ki (cloned D2L receptors): 175 ± 8 nM
SMILES: CCCN(CCCCCc1ccc(O)c(OC)c1)C1CCc2nc(N)sc2C1 (stereo not shown) [Compound 23, 4-(5-((2-Amino-4,5,6,7-tetrahydrobenzo[d]thiazol-6-yl)(propyl)amino)pentyl)-2-methoxyphenol]

EC50 (human DA D2 receptors; CHO cells, read-out: EC50 (GTPγS), D2): 2.29 nM | Emax (human DA D2 receptors; [6]): 74 to 88% | EC50 (human DA D3 receptors; CHO cells, read-out: EC50 (GTPγS), D3): 0.22 nM | Emax (human DA D3 receptors; [6]): 74 to 88% | Ki (cloned rat D3 receptors): 0.36 nM | Ki (cloned rat D2L receptors): 16.9 nM
SMILES: CCCN(CCN1CCN(c2cccc3[nH]c4ccccc4c23)CC1)[C@H]1CCc2c(O)cccc2C1 [Compound (−)-95c, (S)-6-((2-(4-(9H-carbazol-4-yl)piperazin-1-yl)ethyl)(propyl)amino)-5,6,7,8-tetra-hydronaphthalen-1-ol]
reduction in ROS (PC12 cells [2]): 36% | concentration of greatest protective effect (PC12 cells [3]; 24 h pretreatment, then 75 μM 6-OHDA 24 h): 20 µM | increase in cell survival compared to 6-OHDA treated alone (PC12 cells [3]; at concentration of greatest protective effect, 75 μM 6-OHDA): ~20% | cell viability, compound alone (PC12 cells [4]): no cells loss | duration of locomotor activation ([5]; locomotion monitored for 6 h): significant enhancement of locomotion for the duration of the study of 6 h | reversal of reserpine-induced akinesia / hypolocomotion (horizontal activity) ([5]; reserpine 5 mg/kg sc, 18 h pretreatment, rats): significantly reversed akinesia; also recorded: significantly different

Ki (cloned D3 receptors): 14.2 ± 3.8 nM | Ki (cloned D2L receptors): 162 ± 7 nM
SMILES: CCCN(CCN1CCN(c2ccc3c(c2)C(=O)C(=O)N3)CC1)[C@H]1CCc2nc(N)sc2C1 [Compound 70]

Ki (cloned D3 receptors): 1.57 ± 0.41 nM | Ki (cloned D2L receptors): 68.3 ± 12 nM
SMILES: CCCN(CCCCCc1ccc(O)c(OC)c1)[C@@H]1CCc2nc(N)sc2C1 [(−)-23, (R)-4-(5-((2-Amino-4,5,6,7-tetrahydrobenzo[d]thiazol-6-yl)(propyl)amino)pentyl)-2-methoxyphenol]
